Reference: publication PMC12648864 (Biology of Sex Differences, 2025)
“And” between values parts separate entries of the source, which are not always exact repeats. Equal entries are not always repeated. Where two headings read alike, the source gives them in different places.

Tested on: plasma metabolites
Assay type: in vivo, rat
Experimental: Male and female SD rats were divided into experimental and control groups. Each group contained 10 male and 10 female rats. […] Blood was collected from orbital vein into sodium heparin-coated centrifugal tubes pre-chilled at 4 ℃, at 30 min, 2 h, and 12 h post-administration respectively. Plasma was separated by gentle inversion, immediately quenched in liquid nitrogen, and centrifuged at 1500 g for 10 min at 4 ℃. The prepared plasma was stored at − 80 ℃ until LC-MS/MS analysis.
The stored plasma samples were thawed at 4 °C, and 100 µL of each sample was transferred to a centrifuge tube. Proteins were precipitated using 1 mL of methanol/acetonitrile/water solution (2:2:1, v: v:v) at 4 °C. After vortex mixing, the sample mixture was sonicated for 30 min (ice was used to maintain the low-temperature conditions). The sonicated mixture was allowed to stand for 10 min at […], then centrifuged at 14,000 g for 20 min at 4 °C. The resulting supernatant was collected and dried under vacuum. For instrumental analysis, the dried supernatant was reconstituted in 100 µL of aqueous acetonitrile solution, vortexed, then centrifuged at 14,000 g for 15 min at 4 °C. To ensure instrument stability and data reliability, quality control samples were prepared and analyzed using random sampling.
Chromatographic conditions: separation was performed in a Waters Acquity UPLC BEH Amide column (1.7 μm, 2.1 × 100 mm). The column temperature was 25 ℃ and flow rate was 0.5 mL/min. The injection volume was 2 µL, with the mobile phases consisting of A: water + 25 mM ammonium acetate + 25 mM ammonia, and B: acetonitrile. The gradient elution program was as follows: 0–0.5 min, 95% B; 0.5–7 min, 95%−65% B; 7–8 min, 65%−40% B; 8–9 min, 40% B; 9–9.1 min, 40%−95%B; 9.1–12 min, 95%B.
MS conditions: Detection was carried out using electrospray ionization in both positive and negative ion modes. The following parameters were used: spray voltage, ± 5500 V; ionization temperature, 600 ℃; nebulization air pressure, 60 psi; auxiliary air pressure, 60 psi; air curtain air pressure, 30 psi; time-of-flight MS scanning range (m/z), 60–1000 Da; product ion scanning range, 25–1000 Da. The secondary mass spectra were acquired using information-dependent acquisition in high-resolution mode. The cone bore voltage was ± 60 V (positive and negative modes) and collision energy was 35 ± 15 eV.
Orthogonal partial least squares-discriminant analysis (OPLS-DA) were computed for control female and male rats. […] Differential metabolites were identified using stringent criteria: variable importance in projection (VIP) scores > 1 and statistically significant from t-test.
OPLS-DA scores were calculated for the control group and experimental male rats. […] Differential metabolites were identified using stringent selection criteria: VIP scores > 1.0 and P < 0.05, as derived from the OPLS-DA model.
We performed pairwise comparisons of metabolites between male and female rats in the experimental and control groups. […] We performed KEGG enrichment analysis on metabolites that differed between male and female rats in the experimental group (Fig. 6G-I).

[1] = male rats, test (TM3) vs control (BM3), 30 minutes, plasma
[2] = female rats, 30 minutes, test group (TF3, strychnine) vs control group (BF3), plasma metabolite
[3] = male rats, test (TM5) vs control (BM5), 2 hours, plasma
[4] = female rats, 2 hour, test group (TF5, strychnine) vs control group (BF5), plasma metabolite
[5] = female rats, 12 hour, test group (TF8, strychnine) vs control group (BF8), plasma metabolite
[6] = male rats, test (TM8) vs control (BM8), 12 hours, plasma

SMILES | Fold change [2] | Fold change [5] | Fold change [6] | other results
CCCCCCCC/C=C\CCCCCCCC(=O)O[C@H](COC(=O)CCCCCCCCCCCCCCCCC)COP(=O)([O-])OCC[N+](C)(C)C |  |  |  | Fold change [1]: 0.7683
CCCCCCCC/C=C\CCCCCCCC(=O)OC[C@H](COP(=O)([O-])OCC[N+](C)(C)C)OC(=O)CCCCCCC/C=C\CCCCCCCC | 0.7409 |  |  | Fold change [1]: 1.344
CCCCC/C=C\C/C=C\CCCCCCCC(=O)OCC(O)CO (racemic) [MG(18:2(9Z,12Z)/0:0/0:0)[rac]] |  |  |  | Fold change [1]: 0.8489
C[n+]1cccc(C(N)=O)c1 [1-Methylnicotinamide] |  |  |  | Fold change [3]: 1.347
CCCCCCCCCCCCCC(=O)OC[C@@H](O)COP(=O)([O-])OCC[N+](C)(C)C [1-Myristoyl-sn-glycero-3-phosphocholine] | 0.7956 | 0.767 | 1.421 | Fold change [4]: 0.6202; Fold change [1]: 1.568
CCCCCCCC/C=C\CCCCCCCC(=O)OC[C@@H](O)COP(=O)([O-])OCC[N+](C)(C)C [1-Oleoyl-sn-glycero-3-phosphocholine] | 0.8445 |  |  | 
CCCCCCCCCCCCCCCC(=O)OCC(O)CO (stereo not shown) [1-Palmitoylglycerol] | 0.3279 | 1.171 |  | Fold change [3]: 0.6081
CCCCCCCCCCCCCCCC(=O)OC[C@@H](O)COP(=O)([O-])OCC[N+](C)(C)C [1-Palmitoyllysophosphatidylcholine] |  |  |  | Fold change [3]: 1.155
CCCCCCCCCCCCCCCCCC(=O)OC[C@@H](O)COP(=O)([O-])OCC[N+](C)(C)C [1-Stearoyl-sn-glycerol 3-phosphocholine] |  |  | 0.2224 | Fold change [1]: 0.8936
C=C1CC[C@H](O)C/C1=C/C=C1\CCC[C@]2(C)[C@@H]([C@H](C)CCCC(C)C)CC[C@@H]12 [Cholecalciferol (Vitamin D3)] | 1.921 |  |  | Fold change [3]: 1.578
O=C(O)[C@H]1CCCCN1 [D-Pipecolinic acid] | 2.231 |  |  | Fold change [4]: 1.817
CCCC[C@H](N)C(=O)O [L-Norleucine] | 0.6394 | 1.298 | 0.6711 | Fold change [4]: 1.28
CCCCCCCCCCCCCCCC(=O)O[C@H](CC(=O)[O-])C[N+](C)(C)C [L-Palmitoylcarnitine] | 2.52 |  |  | Fold change [4]: 1.713
O=C(O)[C@@H]1CCCCN1 [L-Pipecolic acid] | 0.7035 | 1.276 |  | Fold change [4]: 1.162
CC(C)CCC[C@@H](C)[C@H]1CC[C@H]2C3=CC[C@H]4C[C@@H](O)CC[C@]4(C)[C@H]3CC[C@]12C [Lathosterol] | 2.481 | 0.602 | 3.049 | 
CCCCCCCCCCCCC/C=C/[C@@H](O)[C@H](CO)NC(=O)CCCCCCCCCCCCCCC [N-Palmitoylsphingosine] |  |  | 1.476 | 
CN(C)C(N)=NCCC[C@H](N)C(=O)O [NG,NG-dimethyl-L-arginine(ADMA)] |  |  |  | Fold change [1]: 0.5058
CC(=O)OC[C@H](N)C(=O)O [O-Acetyl-L-serine] |  |  |  | Fold change [1]: 0.6094
CCCCCCCCCCCCCCCC(=O)OC[C@H](COP(=O)([O-])OCC[N+](C)(C)C)OC(=O)CCCCCCCCCCCCCCC [PC(16:0/16:0)] |  |  | 0.7843 | 
CSC[C@H]1O[C@@H](n2cnc3c(N)ncnc32)[C@H](O)[C@@H]1O [S-Methyl-5'-thioadenosine] |  |  | 0.6708 | 
CCCCCCCCCCCCCCC[C@@H](O)[C@@H](N)CO [Sphinganine] | 1.985 |  |  | 
CCCCCCCCCCCCC/C=C/[C@@H](O)[C@H](COP(=O)([O-])OCC[N+](C)(C)C)NC(=O)CCCCCCCCCCCCCCCCC [Sphingomyelin (d18:1/18:0)] |  |  |  | Fold change (rat, in vivo): 1.142 and 1.189
COc1ccc(-c2cc(=O)c3c(OC)c(OC)c(OC)c(OC)c3o2)cc1 [Tangeritin] |  | 9.489 | 0.02313 | Fold change [4]: 3.045
CCCCCCCCCCCCCCCCSC[C@H](COP(=O)(O)OCC[N+](C)(C)C)NC(=O)CCCCCCCCCCCCCCC [Thioetheramide-PC] |  | 1.1574 | 0.7991 | 
NC(N)=O [Urea] |  |  |  | Fold change [4]: 1.116
O=C1CCCCCN1 [epsilon-Caprolactam] | 1.263 | 0.793 |  | Fold change [3]: 0.6921
